Five molecules from publication PMC3909258, “Tannins from Hamamelis virginiana Bark Extract: Characterization and Improvement of the Antiviral Efficacy against Influenza A Virus and Human Papillomavirus” (PLoS ONE, 2014) can be followed below.

pEC50: −log10 of the molar value. Several values for one entry are separate records, joined by “and”; a condition that tells them apart may be missing. Equal values may be shown once.

A word on the EC50: it is the concentration at which the effect is half-maximal. As usually defined, the pEC50 is −log10 of the EC50, conventionally taken in molar units.

Data set [1] has as its system pandemic H1N1 A/Lux/46/2009. The data set is classed as cell-based, influenza A virus.
The nature of data set [2]: Tannin depletion with hide powder, phenols by Folin-Ciocalteu. As to conditions: pyrogallol equivalents normalized to untreated sample.
Data set [3] has as its system H1N1 A/Puerto Rico/8/34-NS116-GFP. The experiment in a line: Antiviral effect against GFP reporter virus on A549 cells. As to conditions: for SI (CC50/EC50): CC50 A549 XTT / EC50 reporter virus. A general note: Formazan colour is commonly taken as a measure of viable cells.
A further data set is described as follows: in vitro. As to conditions: human.
The nature of data set [4]: XTT cytotoxicity assay on A549 cells. Conditions: human.
Where [5] appears, read: Influenza A virus, H1N1, A549, 24 h.

Take `O=C(O[C@@H]1Cc2c(O)cc(O)cc2O[C@@H]1c1cc(O)c(O)c(O)c1)c1cc(O)c(O)c(O)c1` [EGCG, (−)-epigallocatechin gallate]: the “Lower viral titer after virus preincubation” value in data set [1] is given as roughly 7 fold. For the same molecule, in data set [2], the “Remaining phenol content after hide powder treatment” value is given as “intermediate reduction”. The “SI (CC50/EC50)” value in data set [3] is 85. In data set [3] (setting [5]), the EC50 was 12.1 µM and 5.6 µg/mL. Moreover, the CC50 at 24 h in “in vitro” is 1.03 mM and 472 µg/mL.

`O=C(O)c1cc(O)c(O)c(O)c1` [Gallic acid, Gallic acid monohydrate]: the CC50 at 24 h in data set [4] was 770 µM and 145 µg/mL. For the same molecule, the “Remaining phenol content after hide powder treatment” value in data set [2] is on record as 89 % of untreated. In data set [3] (setting [5]), the concentration for a half-maximal effect (EC50) was 50.8 µM and 9.6 µg/mL.

In data set [3] (setting [5]), `O=C(OC[C@H]1OC(O)[C@@](O)(COC(=O)c2cc(O)c(O)c(O)c2)[C@@H]1O)c1cc(O)c(O)c(O)c1` (some centres unmarked) [Hamamelitannin, hamamelitannin] gave a negative-log EC50 (pEC50) of less than 2.00.

Consider `O=C(OC[C@H]1O[C@@H](OC(=O)c2cc(O)c(O)c(O)c2)[C@H](OC(=O)c2cc(O)c(O)c(O)c2)[C@@H](OC(=O)c2cc(O)c(O)c(O)c2)[C@@H]1OC(=O)c1cc(O)c(O)c(O)c1)c1cc(O)c(O)c(O)c1` [Pentagalloylglucose, penta-O-galloyl-β-D-glucose], for which the CC50 at 24 h in data set [4] was 779 µM and 733 µg/mL. In addition, the “SI (CC50/EC50)” value was found to be 40.0 in data set [3] and 40 in data set [3] (listed as pentagalloylglucose). In addition, in data set [3] (setting [5]), the EC50 is 19.5 µM and 18.3 µg/mL.

Consider `O=C(OC[C@H]1O[C@@H](OC(=O)c2cc(O)c(O)c(OC(=O)c3cc(O)c(O)c(O)c3)c2)[C@H](OC(=O)c2cc(O)c(O)c(OC(=O)c3cc(O)c(O)c(O)c3)c2)[C@@H](OC(=O)c2cc(O)c(O)c(OC(=O)c3cc(O)c(O)c(O)c3)c2)[C@@H]1OC(=O)c1cc(O)c(O)c(OC(=O)c2cc(O)c(O)c(O)c2)c1)c1cc(O)c(O)c(OC(=O)c2cc(O)c(O)c(O)c2)c1` [Tannic acid, tannic acid], for which, in data set [3], the “SI (CC50/EC50)” value amounted to 30.7.
